In patent US11576416B2, “Method of producing microparticles of the type having a crosslinked, aggregated protein matrix by spray drying” (Anabio Technologies Limited, priority 2015, dated 2023):

Experiments:
Lb. acidophilus = assay: Survival of probiotic bacteria during the drying process; assay type: cell-based; conditions: acid used as the weak acid in the mix
Description: The pH of the final product will dictate the type of weak acid to be utilised.

experimental animals = conditions: cited from earlier work

| SMILES | Viability of probiotic bacteria during the drying process (Lb. acidophilus) | Hazard to man or animals (experimental animals; at the level succinic acid occurs naturally in foods) | Amount tolerated by experimental animals (experimental animals; experimental animals) |
| --- | --- | --- | --- |
| O=C1O[C@H]([C@@H](O)CO)C(O)=C1O [Ascorbic acid] | has not effect |  |  |
| O=C(O)CCC(=O)O [succinic acid, butanedioic acid] | has not effect | no evidence that it is hazardous | several |
